Test results as given in patent US11267794B2, “Benzothia(di)azepine compounds and their use as bile acid modulators” (Albireo AB, priority 2019, dated 2022).
Like-named read-outs stand apart in the source and are kept apart here.

Legend:
hIBAT = target: T1, hIBAT (Homo sapiens, UniProt Q12908); experiment: IBAT (h/m) assay, 3H-taurocholic acid uptake in human IBAT-overexpressing cells; type: cell-based; conditions: 0.25 μM 3H-taurocholic acid and 5 μM cold taurocholic acid, 20 minutes
T1 construct: expressed in transfected cells; kept under Puromycin selection
T1 sequence (Q12908 1-348): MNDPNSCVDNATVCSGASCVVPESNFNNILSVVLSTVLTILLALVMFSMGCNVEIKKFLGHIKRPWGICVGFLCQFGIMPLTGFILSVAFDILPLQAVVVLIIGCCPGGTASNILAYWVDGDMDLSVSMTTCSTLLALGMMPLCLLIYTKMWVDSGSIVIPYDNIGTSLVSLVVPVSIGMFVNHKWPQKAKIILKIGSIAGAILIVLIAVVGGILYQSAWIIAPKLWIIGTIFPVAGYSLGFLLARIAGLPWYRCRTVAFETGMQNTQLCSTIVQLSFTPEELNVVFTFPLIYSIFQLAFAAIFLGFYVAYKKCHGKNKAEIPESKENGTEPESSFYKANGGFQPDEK
Procedure: 10,000 cells (Human or Mouse IBAT-overexpressing cells) were seeded in 96-wells plate (Corning CLS3809) in 200 μL MEM-alpha medium (Gibco 12571-063) supplemented with 10% FBS (Gibco 10438026) containing Puromycin (Gibco A1113803) (10 μg/mL) and incubated at 37° C. in 5% CO2 for 48 hours. After incubation, media was decanted from the wells and cells were washed two times with 300 μL of basal MEM-alpha medium (FBS-free). After decanting basal MEM-alpha medium each time, plates were tapped against paper towel to ensure maximum removal of residual media. Test inhibitor dilutions (highest test concentration being 10 μM, 3-fold serial dilution, 10 points) prepared in DMSO (Sigma D2650) were added in incubation mix (maintaining 0.2% final DMSO concentration) containing 0.25 μM 3H-taurocholic acid (ARC ART-1368) and 5 μM of cold taurocholic acid (Sigma T4009). 50 μL of incubation mix containing test inhibitors was then added to the wells (in duplicate) and the plates were incubated for 20 minutes in a CO2 incubator at 37° C. After incubation, the reaction was stopped by keeping the plates on ice water mix for 2-3 minutes and then the incubation mix was aspirated completely from the wells. The wells were washed two times with 250 μL of chilled unlabelled 1 mM taurocholic acid dissolved in HEPES (Gibco 15630080)-buffered (10 mM) HBSS (Gibco 14175079) (pH 7.4). The plates were tapped against a paper towel after every wash to ensure maximum removal of blocking buffer.
(§1) 100 μL of MicroScint-20 (PerkinElmer 6013621) was added to the wells and kept overnight at room temperature before reading the plates in TopCount NXT™ Microplate Scintillation and Luminescence Counter from PerkinElmer under 3H Test protocol (set at 120 seconds reading time per well).
(§2) All test compounds were provided in powder form at room temperature. 10 mM DMSO stocks of the test compounds were prepared, aliquoted and stored at −20° C. From the 10 mM DMSO stock of the compounds, a 3-fold serial dilution in DMSO was prepared to get a total of 10 dilutions of the test compounds. 0.5 μL of this dilution in DMSO was added to 250 μL of FBS-free basal media containing 3H-taurocholic acid and cold taurocholic acid to prepare the incubation mixture.

Caco-2 cells [1] = experiment: Bidirectional permeability assay (Caco-2 cells); conditions: FaSSIF buffer, 120 minutes at 37° C.; for Permeability (Caco-2) Papp A2B: absorptive direction (A2B); for Permeability (Caco-2) Papp B2A: secretory direction (B2A)
Procedure: (§3) Caco-2 cells (Evotec) were seeded at a density of 70,000 cells/well in Millicell® 24-well cell culture insert plates and maintained in an incubator (37° C., 5% CO2, 95% RH) for 21 days with media change on alternate days.
(§4) Stock solutions (10 mM) of the test compounds, atenolol (low permeability marker), propranolol (high permeability marker) and digoxin (substrate for P-gp transport pathway) were prepared in dimethylsulfoxide (DMSO). An intermediate stock solution (1 mM) was prepared by diluting 10 μL of 10 mM master stock solution with 90 μL of neat DMSO. A working stock solution (10 μM) was prepared by diluting 50 μL of 1 mM with 4950 μL of FaSSIF buffer. Post addition of compounds to the FaSSIF, samples were subjected to sonication for 2 hours, and centrifuged at 4000 RPM for 30 minutes at 37° C. The 4 mL of resultant supernatant was directly used in the assay. The final DMSO concentration in the transport experiments was 1%.
(§5) On the day of assay, Caco-2 monolayers were washed twice with transport buffer (HBSS, pH 7.4) and pre-incubated for 30 min (37° C., 5% CO2, 95% RH) in an incubator. The electrical resistance of the monolayers was measured with a Millicell®—ERS system. Monolayers with trans-epithelial electrical resistance (TEER) values greater than 350 ohm·cm^2 were selected for the assay.
(§6) The assay was conducted in absorptive direction (A2B) and secretory (B2A) directions. Transport experiments were initiated by addition of transport assay buffer (FaSSIF buffer prepared in HBSS) consisting of compounds to the donor compartment (apical chamber A-B; basolateral chamber B-A) in duplicate (n=2) wells. Drug free HBSS buffer (pH 7.4) containing 1% bovine serum albumin (BSA) was introduced to the receiver (A-B-basolateral; B-A-Apical) compartments. The volumes of apical and basolateral compartments were 0.4 and 0.8 mL, respectively. After adding dosing solution, plates were incubated in an incubator for 120 minutes at 37° C. After 120 minutes, donor and receiver samples were collected and matrix matched (1:1, 30 μL study sample+30 μL blank buffer) with the opposite buffer. Dosing samples matrix matched (1:1, 30 μL study sample+30 μL blank buffer) with the opposite buffer. Samples were processed by adding acetonitrile containing internal standard (60 μL study sample+200 μL acetonitrile containing internal standard—Tolbutamide, 500 ng/mL). Samples were vortexed and centrifuged at 4000 rpm for 10 minutes. The obtained supernatant (100 μL) was diluted with 100 μL of water and transferred to fresh 96 well plates. The concentration of compounds in the samples was analyzed by liquid chromatography tandem mass spectrometry (LC-MS/MS) method using discovery grade bio-analytical method, as applicable.
(§7) The mean apparent permeability (Papp, ×10^−6 cm/sec) of the test compounds, atenolol, propranolol and digoxin were calculated as follows:

[2] = Bidirectional permeability assay (Caco-2 cells); conditions: human, Caco-2
Procedure: as §3, §4, §5, §6, §7

hLBAT = target: T2, hLBAT (Homo sapiens, UniProt Q14973); experiment: LBAT (h/m) assay, 3H-taurocholic acid uptake in human LBAT-overexpressing cells; type: cell-based; conditions: 0.3 μM 3H-taurocholic acid and 7.5 μM cold taurocholic acid, 20 minutes
T2 construct: expressed in transfected cells; kept under Geneticin selection
T2 sequence (Q14973 1-349): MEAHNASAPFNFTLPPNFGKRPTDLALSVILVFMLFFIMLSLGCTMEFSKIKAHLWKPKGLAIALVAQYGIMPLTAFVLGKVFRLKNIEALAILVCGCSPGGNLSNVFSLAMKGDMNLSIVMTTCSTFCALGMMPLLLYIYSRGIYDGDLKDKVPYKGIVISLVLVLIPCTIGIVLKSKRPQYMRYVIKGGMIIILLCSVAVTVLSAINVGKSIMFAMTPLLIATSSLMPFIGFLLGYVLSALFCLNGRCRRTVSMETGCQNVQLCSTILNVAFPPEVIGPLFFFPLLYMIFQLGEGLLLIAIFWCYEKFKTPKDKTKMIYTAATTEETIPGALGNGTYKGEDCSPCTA
Procedure: 20,000 cells (Human or Mouse LBAT-overexpressing cells) were seeded in 96-wells plate (Corning CLS3809) in 100 μL MEM-alpha medium (Gibco 12571-063) supplemented with 10% FBS (Gibco 10438026) containing Geneticin (Gibco 10131-027) (1 mg/mL) and incubated at 37° C. in 5% CO2 for 24 hours. After incubation, media was decanted from the wells and cells were washed two times with 300 μL of basal MEM-alpha medium (FBS-free). After decanting basal MEM-alpha medium each time, plates were tapped against paper towel to ensure maximum removal of residual media. For human LBAT, incubation mix was prepared by adding test inhibitor dilutions (3-fold serial dilution in DMSO (Sigma D2650), 10 points) in MEM-alpha (without FBS) containing 0.3 μM 3H-taurocholic acid (ARC ART-1368) and 7.5 μM cold taurocholic acid (Sigma T4009) (maintaining 0.2% final DMSO concentration). For mouse LBAT, incubation mix was prepared by adding test inhibitor dilutions (3-fold serial dilution in DMSO, 10 points) in MEM-alpha (without FBS) containing 0.3 μM 3H-taurocholic acid and 25 μM cold taurocholic acid maintaining 0.2% final DMSO concentration). 50 μL of incubation mix containing test inhibitors was then added to the wells (in duplicate) and the plates were incubated for 20 minutes in a CO2 incubator at 37° C. After incubation, the reaction was stopped by keeping the plates on ice water mix for 2-3 minutes and then the incubation mix was aspirated completely from the wells. The wells were washed two times with 250 μL of chilled unlabelled 1 mM taurocholic acid dissolved in HEPES (Gibco 15630080)-buffered (10 mM) HBSS (Gibco 14175079) (pH 7.4). The plates were tapped against a paper towel after every wash to ensure maximum removal of blocking buffer.
as §1, with “well, with normal plate orientation).” for “well).”
as §2

[3] = design: species or system mice (CD1); conditions: mouse, in vivo
Procedure: Male mice (C57BL/6 or CD1) or Wistar rats of 8-9 weeks old were used. For each test compound, two groups of 3 animals each were used. One group was administered a single intravenous dose of 1 mg/kg (vehicle 100% DMSO) through the tail vein and the other group was administered a single oral dose of 10 mg/kg through gavage needle. The group that was administered an oral dose was fasted overnight. Blood samples were collected after 0.083, 0.25, 0.5, 1, 2, 4, 6, 8 and 24 hours following intravenous administration, and after 0.25, 0.5, 1, 2, 4, 6, 8 and 24 hours following oral administration. Blood samples were taken from saphenous vein. 0.2% EDTA was used as the anticoagulant. The samples were analyzed by a discovery grade bioanalytical method developed for the estimation of test compound in plasma, using an LC-MS/MS system.

Caco-2 cells [4] = system: Caco-2 cells
Procedure: as §3, §4, §5, §6, §7

Compound	IC50 (hIBAT) [µM]	Permeability (Caco-2) Papp A2B (Caco-2 cells [1]) [×10⁻⁶ cm/s]	Permeability (Caco-2) Papp B2A (Caco-2 cells [1]) [×10⁻⁶ cm/s]	Papp A→B at 120 min, 10 µM [2] [×10⁻⁶ cm/s]	Papp B→A at 120 min, 10 µM [2] [×10⁻⁶ cm/s]	IC50 (hLBAT) [µM]	Bioavailability (%) [3]	Permeability (Caco-2) Papp A2B (Caco-2 cells [4]) [×10⁻⁶ cm/s]	Permeability (Caco-2) Papp B2A (Caco-2 cells [4]) [×10⁻⁶ cm/s]
CCCC[C@@]1(CC)CN(c2ccccc2)c2cc(N(C)C)c(O/C=C/C(=O)O)cc2S(=O)(=O)N1.CCCC[C@]1(CC)CN(c2ccccc2)c2cc(N(C)C)c(O/C=C/C(=O)O)cc2S(=O)(=O)N1 (mixture of isomers) [Example 14, (S)-(E)-3-((3-butyl-7-(dimethylamino)-3-ethyl-1,1-dioxido-5-phenyl-2,3,4,5-tetrahydro-1,2,5-benzothiadiazepin-8-yl)oxy)acrylic acid and (R)-(E)-3-((3-butyl-7-(dimethylamino)-3-ethyl-1,1-dioxido-5-phenyl-2,3,4,5-tetrahydro-1,2,5-benzothiadiazepin-8-yl)oxy)acrylic acid]	0.006	11	20						
CCCCC1(CC)CN(c2ccc(F)cc2)c2cc(SC)c(O/C=C(\F)C(=O)O)cc2S(=O)(=O)C1 (stereo not shown) [Example 5, (Z)-3-((3-butyl-3-ethyl-5-(4-fluorophenyl)-7-(methylthio)-1,1-dioxido-2,3,4,5-tetrahydro-1,5-benzothiazepin-8-yl)oxy)-2-fluoroacrylic acid]	0.005			2.3	2	0.014			
CCCC1(CC)CN(c2ccccc2)c2cc(SC)c(O/C=C(\F)C(=O)O)cc2S(=O)(=O)C1 (stereo not shown) [Example 12, (Z)-3-((3-ethyl-7-(methylthio)-1,1-dioxido-5-phenyl-3-propyl-2,3,4,5-tetrahydrobenzo-1,5-thiazepin-8-yl)oxy)-2-fluoroacrylic acid]	0.156			3.8	4.1	0.012			
CCCCC1(CC)CN(c2ccccc2)c2cc(N(C)C)c(O/C=C/C(=O)O)cc2S(=O)(=O)N1 (stereo not shown) [Example 13, (E)-3-((3-butyl-7-(dimethylamino)-3-ethyl-1,1-dioxido-5-phenyl-2,3,4,5-tetrahydro-1,2,5-benzothiadiazepin-8-yl)oxy)acrylic acid]	0.013			22	18	1.86			
(S)-(E)-3-((3-butyl-3-ethyl-5-(4-fluorophenyl)-7-(methylthio)-1,1-dioxido-2,3,4,5-tetrahydro-1,5-benzothiazepin-8-yl)oxy)acrylic acid and (R)-(E)-3-((3-butyl-3-ethyl-5-(4-fluorophenyl)-7-(methylthio)-1,1-dioxido-2,3,4,5 tetrahydro-1,5-benzothiazepin-8-yl)oxy)acrylic acid [Example 10]	0.004					0.113	41 (CD1) %	10	5.4
(S)—(Z)-3-((3-butyl-3-ethyl-5-(4-fluorophenyl)-7-(methylthio)-1,1-dioxido-2,3,4,5-tetrahydro-1,5-benzothiazepin-8-yl)oxy)-2-fluoroacrylic acid and (R)—(Z)-3-((3-butyl-3-ethyl-5-(4-fluorophenyl)-7-(methylthio)-1,1-dioxido-2,3,4,5-tetrahydro-1,5-benzothiazepin-8-yl)oxy)-2-fluoroacrylic acid [Example 7]	0.005	5.7	4.1			0.014			
(S)—(Z)-3-((3-butyl-7-(dimethylamino)-3-ethyl-1,1-dioxido-5-phenyl-2,3,4,5-tetrahydro-1,2,5-benzothiadiazepin-8-yl)oxy)-2-fluoroacrylic acid and (R)—(Z)-3-((3-butyl-7-(dimethylamino)-3-ethyl-1,1-dioxido-5-phenyl-2,3,4,5-tetrahydro-1,2,5-benzothiadiazepin-8-yl)oxy)-2-fluoroacrylic acid [Example 3]	0.008	1.8	2.2			0.427			
